From patent US20250270172A1, “Pyrimidine Derivatives As Modulators of the 5-HT2A Serotonin Receptor Useful For The Treatment of Disorders Related Thereto” (Arena Pharmaceuticals, Inc., priority 2020, published 2025)
Several values for one entry are separate records, joined by “and”; a condition that tells them apart may be missing. Equal entries are not always repeated.

Key:
[1] = biological target: 5-HT2C (Homo sapiens (Human), UniProt P28335); experiment: HTRF IP-One antagonist assay, 5-HT2C; format: cell-based; conditions: HEK293 cells stably expressing receptor, inositol phosphate accumulation, 80 nM 5-HT in Assay Buffer;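 also: clonal HEK293 line with low 5-HT2C density (10–20 fmol/mg), HTRF detection of IP-One, 10-point dose curves from 10 µM in 5-fold steps, triplicate points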
[2] = biological target: T1, 5-HT2A (Homo sapiens (Human), UniProt P28223); experiment: Radioligand binding assay, [^3H]5-HT competition, 5-HT2A; conditions: [^3H]5-HT radioligand, membranes of HEK293 cells expressing recombinant 5-HT2A; Ki from IC50 by Cheng-Prusoff; read-out: 5-HT2A serotonin binding Ki value
[3] = biological target: 5-HT2B (Homo sapiens (Human), UniProt P41595); experiment: HTRF IP-One antagonist assay, 5-HT2B; format: cell-based; conditions: HEK293 cells stably expressing receptor, inositol phosphate accumulation, 80 nM 5-HT in Assay Buffer;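 also: clonal HEK293 line with low 5-HT2B expression (estimated 150-200 fmol/mg by radioligand binding), IP-One HTRF readout, 10-point curves from 10 µM in 5-fold steps, triplicate points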
[4] = biological target: T1, 5-HT2A; experiment: HTRF IP-One antagonist assay, 5-HT2A; format: cell-based; conditions: HEK293 cells stably expressing receptor, inositol phosphate accumulation, 80 nM 5-HT in Assay Buffer;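 also: clonal line with low receptor density (about 50–70 fmol/mg), 10-point dose-response from 10 µM in 5-fold steps, HTRF detection after 1 hr, triplicate points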

Sequence of 5-HT2B (P41595 whole entry): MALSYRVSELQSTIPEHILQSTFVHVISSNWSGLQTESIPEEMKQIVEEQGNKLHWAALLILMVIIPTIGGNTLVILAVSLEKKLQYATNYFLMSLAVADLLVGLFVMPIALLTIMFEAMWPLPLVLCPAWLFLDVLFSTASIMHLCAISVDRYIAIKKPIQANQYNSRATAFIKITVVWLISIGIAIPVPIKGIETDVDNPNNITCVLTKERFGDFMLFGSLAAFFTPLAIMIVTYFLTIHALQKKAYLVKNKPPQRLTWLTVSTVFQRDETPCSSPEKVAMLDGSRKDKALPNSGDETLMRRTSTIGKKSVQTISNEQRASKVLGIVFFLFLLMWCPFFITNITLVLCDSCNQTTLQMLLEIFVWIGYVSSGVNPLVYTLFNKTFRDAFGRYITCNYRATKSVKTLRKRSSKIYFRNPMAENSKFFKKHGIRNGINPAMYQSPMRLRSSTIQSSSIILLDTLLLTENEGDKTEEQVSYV
T1 sequence (P28223 whole entry): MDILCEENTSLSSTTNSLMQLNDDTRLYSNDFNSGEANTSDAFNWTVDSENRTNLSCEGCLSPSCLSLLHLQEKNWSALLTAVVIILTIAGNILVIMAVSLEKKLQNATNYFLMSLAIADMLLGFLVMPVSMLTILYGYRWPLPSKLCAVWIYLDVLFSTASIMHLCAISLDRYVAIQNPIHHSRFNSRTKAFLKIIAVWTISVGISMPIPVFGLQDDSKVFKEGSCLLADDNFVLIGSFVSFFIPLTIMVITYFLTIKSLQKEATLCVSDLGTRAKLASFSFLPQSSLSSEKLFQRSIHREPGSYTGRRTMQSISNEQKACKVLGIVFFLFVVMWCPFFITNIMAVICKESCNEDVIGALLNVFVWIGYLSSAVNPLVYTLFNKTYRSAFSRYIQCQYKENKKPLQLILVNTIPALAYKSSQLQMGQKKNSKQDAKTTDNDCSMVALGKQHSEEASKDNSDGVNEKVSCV
Sequence of 5-HT2C (P28335 33-458): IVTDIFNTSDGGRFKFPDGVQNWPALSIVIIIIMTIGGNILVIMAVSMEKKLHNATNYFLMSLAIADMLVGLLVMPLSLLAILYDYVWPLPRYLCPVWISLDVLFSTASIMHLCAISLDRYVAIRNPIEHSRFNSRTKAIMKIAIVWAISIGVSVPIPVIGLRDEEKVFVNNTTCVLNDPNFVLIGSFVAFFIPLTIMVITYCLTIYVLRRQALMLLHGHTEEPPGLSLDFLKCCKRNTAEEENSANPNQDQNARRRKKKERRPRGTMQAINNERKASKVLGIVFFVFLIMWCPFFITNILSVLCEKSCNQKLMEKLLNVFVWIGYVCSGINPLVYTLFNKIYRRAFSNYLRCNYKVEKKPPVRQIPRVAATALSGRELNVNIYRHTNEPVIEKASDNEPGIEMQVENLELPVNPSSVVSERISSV

SMILES | IC50 [1] [nM] | Ki [2] | IC50 [3] [nM] | IC50 [4] [nM]
Cc1ncnc(C)c1-c1cc(NC(=O)c2cccn2C)ccc1OCCN1CCCC1 [Compound 200, N-(3-(4,6-dimethylpyrimidin-5-yl)-4-(2-(pyrrolidin-1-yl)ethoxy)phenyl)-1-methyl-1H-pyrrole-2-carboxamide] | 100000 | 3.72 nM | 100000 | 11.7
Cc1ncnc(C)c1-c1cc(NC(=O)c2ccnn2C)ccc1OCCN1CCCC1 [Compound 202, N-(3-(4,6-dimethylpyrimidin-5-yl)-4-(2-(pyrrolidin-1-yl)ethoxy)phenyl)-1-methyl-1H-pyrazole-5-carboxamide] | 100000 | 5.25 nM | 100000 | 6.35
Cc1ncnc(C)c1-c1cc(NC(=O)c2cc(F)ccn2)ccc1OCCN1CCCC1 [Compound 209, N-(3-(4,6-dimethylpyrimidin-5-yl)-4-(2-(pyrrolidin-1-yl)ethoxy)phenyl)-4-fluoropicolinamide] | 100000 | 4.8 nM | 100000 | 26.2
Cc1ncsc1C(=O)Nc1ccc(OCCN2CCCC2)c(-c2c(C)ncnc2C)c1 [Compound 214, N-(3-(4,6-dimethylpyrimidin-5-yl)-4-(2-(pyrrolidin-1-yl)ethoxy)phenyl)-4-methylthiazole-5-carboxamide] | 100000 | 3.25 nM | 100000 | 5.16
Cc1ncoc1C(=O)Nc1ccc(OCCN2CCCC2)c(-c2c(C)ncnc2C)c1 [Compound 217, N-(3-(4,6-dimethylpyrimidin-5-yl)-4-(2-(pyrrolidin-1-yl)ethoxy)phenyl)-4-methyloxazole-5-carboxamide] | 100000 | 7.23 nM | 100000 | 18.5
Cc1ncnc(C)c1-c1cc(NC(=O)C2C3COCC32)ccc1OCCN1CCCC1 (stereo not shown) [Compound 232, N-(3-(4,6-dimethylpyrimidin-5-yl)-4-(2-(pyrrolidin-1-yl)ethoxy)phenyl)-3-oxabicyclo[3.1.0]hexane-6-carboxamide] | 100000 | 24.5 nM | 100000 | 140
Cc1ncnc(C)c1-c1cc(NC(=O)C2(F)CC2)ccc1OCCN1CCCC1 [Compound 233] | 100000 | 3.81 nM and 4.66 nM | 100000 | 8.55
Cc1ncnc(C)c1-c1cc(NC(=O)Cn2cccc2)ccc1OCCN1CCCC1 [Compound 243, N-[3-(4,6-dimethylpyrimidin-5-yl)-4-(2-pyrrolidin-1-ylethoxy)phenyl]-2-pyrrol-1-yl-acetamide] | 100000 | 8.59 nM | 100000 | 14.8
COC1(C(=O)Nc2ccc(OCCN3CCCC3)c(-c3c(C)ncnc3C)c2)CC1 [Compound 244, N-[3-(4,6-dimethylpyrimidin-5-yl)-4-(2-pyrrolidin-1-ylethoxy)phenyl]-1-methoxy-cyclopropanecarboxamide] | 100000 | 6.51 nM | 100000 | 13.5
Cc1ncnc(C)c1-c1cc(NC(=O)C2CC2)ccc1OCCN1CCCC1 [Compound 245, N-[3-(4,6-dimethylpyrimidin-5-yl)-4-(2-pyrrolidin-1-ylethoxy)phenyl]cyclopropanecarboxamide] | 100000 | 4.3 nM | 100000 | 9.66
Cc1ncnc(C)c1-c1cc(NC(=O)Cc2cncs2)ccc1OCCN1CCCC1 [Compound 247, N-[3-(4,6-dimethylpyrimidin-5-yl)-4-(2-pyrrolidin-1-ylethoxy)phenyl]-2-thiazol-5-yl-acetamide] | 100000 | 4.47 nM | 100000 | 10.6
Cc1ncsc1CC(=O)Nc1ccc(OCCN2CCCC2)c(-c2c(C)ncnc2C)c1 [Compound 250, N-(3-(4,6-dimethylpyrimidin-5-yl)-4-(2-(pyrrolidin-1-yl)ethoxy)phenyl)-2-(4-methylthiazol-5-yl)acetamide] | 100000 | 9.04 nM | 100000 | 13.9
Cc1ncnc(C)c1-c1cc(NC(=O)CCc2nccs2)ccc1OCCN1CCCC1 [Compound 256, N-(3-(4,6-dimethylpyrimidin-5-yl)-4-(2-(pyrrolidin-1-yl)ethoxy)phenyl)-3-(thiazol-2-yl)propanamide] | 100000 | 9.89 nM | 100000 | 56
Cc1ncnc(C)c1-c1cc(NC(=O)CCc2cncs2)ccc1OCCN1CCCC1 [Compound 257, N-(3-(4,6-dimethylpyrimidin-5-yl)-4-(2-(pyrrolidin-1-yl)ethoxy)phenyl)-3-(thiazol-5-yl)propanamide] | 100000 | 14.8 nM | 100000 | 33.5
Cc1ncnc(C)c1-c1cc(NC(=O)Cc2ccno2)ccc1OCCN1CCCC1 [Compound 263, N-(3-(4,6-dimethylpyrimidin-5-yl)-4-(2-(pyrrolidin-1-yl)ethoxy)phenyl)-2-(isoxazol-5-yl)acetamide] | 100000 | 10.1 nM | 100000 | 35.9
Cc1ncc(CC(=O)Nc2ccc(OCCN3CCCC3)c(-c3c(C)ncnc3C)c2)s1 [Compound 266, N-(3-(4,6-dimethylpyrimidin-5-yl)-4-(2-(pyrrolidin-1-yl)ethoxy)phenyl)-2-(2-methylthiazol-5-yl)acetamide] | 100000 | 4.11 nM | 100000 | 5.23
Cc1ncnc(C)c1-c1cc(NC(=O)Cc2ccn(C)c2)ccc1OCCN1CCCC1 [Compound 268, N-[3-(4,6-dimethylpyrimidin-5-yl)-4-(2-pyrrolidin-1-ylethoxy)phenyl]-2-(1-methylpyrrol-3-yl)acetamide] | 100000 | 7.78 nM | 100000 | 62.4
Cc1ncnc(C)c1-c1cc(NC(=O)c2ccccc2)ccc1OCCN1CCCC1 [Compound 271, N-[3-(4,6-dimethylpyrimidin-5-yl)-4-(2-pyrrolidin-1-ylethoxy)phenyl]benzamide] | 100000 | 3.26 nM | 100000 | 6.1
Cc1ncnc(C)c1-c1cc(NC(=O)c2ccc(F)cc2)ccc1OCCN1CCCC1 [Compound 272, N-(3-(4,6-dimethylpyrimidin-5-yl)-4-(2-(pyrrolidin-1-yl)ethoxy)phenyl)-4-fluorobenzamide] | 100000 | 2.43 nM | 2680 | 7.8
Cc1ncnc(C)c1-c1cc(NC(=O)Cc2cccc(F)c2)ccc1OCCN1CCCC1 [Compound 275, N-(3-(4,6-dimethylpyrimidin-5-yl)-4-(2-(pyrrolidin-1-yl)ethoxy)phenyl)-2-(3-fluorophenyl)acetamide] | 100000 | 1.7 nM | 100000 | 6.32
COc1ccc(CC(=O)Nc2ccc(OCCN3CCCC3)c(-c3c(C)ncnc3C)c2)cc1 [Compound 276, N-(3-(4,6-dimethylpyrimidin-5-yl)-4-(2-(pyrrolidin-1-yl)ethoxy)phenyl)-2-(4-methoxyphenyl)acetamide] | 100000 | 0.843 nM | 100000 | 3.07
Cc1ncnc(C)c1-c1cc(NC(=O)c2c(F)cnn2C)ccc1OCCN1CCCC1 [Compound 290, N-[3-(4,6-dimethylpyrimidin-5-yl)-4-(2-pyrrolidin-1-ylethoxy)phenyl]-4-fluoro-2-methyl-pyrazole-3-carboxamide] | 100000 | 3.86 nM | 100000 | 7.36
